# Experimental data taken from patent US20230097866A1, “BACTERIAL TOPOISOMERASE INHIBITORS DERIVED FROM ISOMANNIDE” (Ohio State Innovation Foundation, priority 2020, published 2023).
# Like-named read-outs stand apart in the source and are kept apart here.
# Experiments:
# [1] = biological target: T1, hKv4.3/KChIP2 (Homo sapiens, UniProt Q9UK17); assay: Kv4.3/KChIP2 QPatch CiPA assay; type: cell-based; settings: mean, duplicate
# T1 construct: expressed in transfected cells
# T1 sequence (Q9UK17 1-655): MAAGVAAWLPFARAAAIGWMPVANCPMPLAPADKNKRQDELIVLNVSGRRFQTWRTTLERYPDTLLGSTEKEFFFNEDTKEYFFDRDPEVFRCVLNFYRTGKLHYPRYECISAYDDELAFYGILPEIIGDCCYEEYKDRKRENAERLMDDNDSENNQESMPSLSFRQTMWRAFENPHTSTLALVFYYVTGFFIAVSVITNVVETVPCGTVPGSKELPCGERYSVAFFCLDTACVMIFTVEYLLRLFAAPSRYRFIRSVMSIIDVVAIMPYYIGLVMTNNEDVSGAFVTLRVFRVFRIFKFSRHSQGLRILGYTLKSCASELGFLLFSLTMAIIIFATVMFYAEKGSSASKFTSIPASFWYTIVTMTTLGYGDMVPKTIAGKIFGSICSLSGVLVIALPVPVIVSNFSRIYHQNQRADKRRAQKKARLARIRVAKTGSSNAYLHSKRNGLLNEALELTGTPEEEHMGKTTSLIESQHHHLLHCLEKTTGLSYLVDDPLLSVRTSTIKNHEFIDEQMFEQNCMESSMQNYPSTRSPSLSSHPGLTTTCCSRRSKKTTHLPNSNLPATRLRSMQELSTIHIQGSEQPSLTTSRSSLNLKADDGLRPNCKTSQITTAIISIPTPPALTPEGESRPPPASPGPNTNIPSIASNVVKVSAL
# T1 sequence (Q9NS61 1-270 partner): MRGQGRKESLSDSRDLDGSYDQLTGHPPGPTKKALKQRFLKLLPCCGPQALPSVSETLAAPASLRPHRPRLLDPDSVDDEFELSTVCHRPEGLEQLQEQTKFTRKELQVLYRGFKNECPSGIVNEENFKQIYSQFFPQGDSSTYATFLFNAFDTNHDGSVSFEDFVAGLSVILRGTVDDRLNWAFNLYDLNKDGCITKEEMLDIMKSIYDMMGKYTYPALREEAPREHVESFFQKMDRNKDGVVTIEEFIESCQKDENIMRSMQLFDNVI
# From the text: Early drug discovery programs commonly assess hERG inhibition as the only indicator of potential cardiovascular safety concerns. Researchers have recently recommended a more rigorous evaluation of multiple cardiac ion channels to provide a more comprehensive cardiovascular risk assessment (Fermini, B., et al., A New Perspective in the Field of Cardiac Safety Testing through the Comprehensive In Vitro Proarrhythmia Assay Paradigm. J. Biomolec. Screening 2016, 21, 1-11). Given the promising initial results for 6, further evaluation was undertaken (in duplicate) in a Comprehensive in vitro Proarrhythmia Assay (CiPA) eight assay panel run on the QPatch HT (Sophion, Denmark) automated patch clamp system at three concentrations (3, 30, and 100 μM). All data were filtered for seal quality, seal drop, and current amplitude. A stock solution of the test compound at 30 mM concentration was prepared in DMSO.
# The parameters measured were the maximum outward current evoked on stepping to 40 mV from the test pulse. The peak current amplitude was calculated before and after compound addition and the amount of block was assessed by dividing the Test compound current amplitude by the Control current amplitude. Control is the mean hKv4.3/KChIP2 current amplitude collected 15 seconds at the end of the control; Test Compound is the mean hKv4.3/KChIP2 current amplitude peak and end collected in the presence of test compound at each concentration. The positive control was flecainide.
# [2] = tested on: MRSADRL-3161; assay: MIC panel (Laboratory Specialists, Inc.), MRSA; type: cell-based; settings: Staphylococcus aureus; Cmpd. 6; CLSI broth microdilution
# [3] = biological target: T2, CYP2B6 (Homo sapiens, UniProt P20813); assay: CYP450 inhibition in human liver microsomes, CYP2B6; type: in vitro ADME; settings: 10 μM
# T2 construct: incubated with human liver microsomes (mixed gender, pool of 50 donors, 0.1 mg/mL); from tissue; host or cells: human liver microsomes, pool of 50 donors
# Procedure: CYP450 inhibition assays was conducted using individual enzyme substrates and inhibitors instead of a cocktail to avoid interferences. CYP450 isoforms tested included the following: CYP1A2, CYP2B6, CYP2C8, CYP2C9, CYP2C19, CYP2D6, and CYP3A4. Each test compound was screened at a final concentration of 10 μM. Each test compound was incubated with human liver microsomes (mixed gender, pool of 50 donors, 0.1 mg/mL), CYP450-selective probe substrates, and co-factors (NADPH, MgCl2) in phosphate buffer (pH 7.4) for 10-30 min in a 96-well plate at 37° C. The reactions were stopped by transferring the reaction mixture to acetonitrile/methanol. Samples were mixed and centrifuged, and the supernatants analyzed by LC-MS/MS to quantify percent inhibition relative to vehicle control.
# [4] = tested on: USA300 isolate of MRSA; assay: MIC, CLSI broth microdilution, USA300 MRSA; type: cell-based; settings: Staphylococcus aureus; CLSI broth microdilution; ciprofloxacin-resistant MRSA; read-out: MIC USA300
# [5] = tested on: Streptococcus pneumoniae LSI-4234; assay: MIC panel (Laboratory Specialists, Inc.), S. pneumoniae LSI-4234; type: cell-based; settings: LSI4234, Cmpd. 6, penicillin-susceptible strain
# [6] = tested on: Fluoroquinolone-resistant S. aureus (11 strains); assay: MIC90, panel of fluoroquinolone-resistant MRSA isolates; type: cell-based, Staphylococcus aureus
# [7] = tested on: Acinetobacter baumannii LSI-2957; assay: MIC panel (Laboratory Specialists, Inc.), A. baumannii; type: cell-based; settings: LSI2957, Cmpd. 6, CLSI broth microdilution
# [8] = biological target: Histamine H2 (Homo sapiens, UniProt P25021); assay: Off-target safety panel, Histamine H2; type: binding; settings: duplicate, read-out: % Inhibition at 100 μM conc., Histamine H2
# Procedure: (§1) Potential off-target pharmacology for compound 6 was also evaluated by screening in duplicate against a panel (Bowes, J., et al., Reducing Safety-Related Drug Attrition: The Use of in vitro Pharmacological Profiling. Nat. Rev. Drug Disc. 2012, 11, 909-922) of 44 receptors, enzymes, etc. Of the 44 potential targets, only five were inhibited by >50% at a concentration of 100 μM (Table 7).
# [9] = biological target: Norepinephrine transporter (Homo sapiens, UniProt P23975); assay: Off-target safety panel, norepinephrine transporter; type: binding; settings: duplicate, read-out: % Inhibition at 100 μM conc., Norepinephrine transporter
# Procedure: as §1
# [10] = read-out: % Inhibition Kv4.3 (end current)
# [11] = read-out: % Inhibition Kv4.3 (peak current)
# Histamine H2, sequence (P25021 whole entry): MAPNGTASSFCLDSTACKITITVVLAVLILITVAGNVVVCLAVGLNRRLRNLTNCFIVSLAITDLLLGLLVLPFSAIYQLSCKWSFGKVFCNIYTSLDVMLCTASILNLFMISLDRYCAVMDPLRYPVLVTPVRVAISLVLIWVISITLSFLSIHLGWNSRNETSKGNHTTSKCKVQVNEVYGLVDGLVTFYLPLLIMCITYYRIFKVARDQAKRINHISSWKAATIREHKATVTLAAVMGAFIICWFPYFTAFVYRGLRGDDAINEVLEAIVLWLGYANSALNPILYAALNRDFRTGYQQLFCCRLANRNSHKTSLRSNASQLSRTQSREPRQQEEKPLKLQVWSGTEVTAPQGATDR
# Norepinephrine transporter, sequence (P23975 whole entry, species assumed): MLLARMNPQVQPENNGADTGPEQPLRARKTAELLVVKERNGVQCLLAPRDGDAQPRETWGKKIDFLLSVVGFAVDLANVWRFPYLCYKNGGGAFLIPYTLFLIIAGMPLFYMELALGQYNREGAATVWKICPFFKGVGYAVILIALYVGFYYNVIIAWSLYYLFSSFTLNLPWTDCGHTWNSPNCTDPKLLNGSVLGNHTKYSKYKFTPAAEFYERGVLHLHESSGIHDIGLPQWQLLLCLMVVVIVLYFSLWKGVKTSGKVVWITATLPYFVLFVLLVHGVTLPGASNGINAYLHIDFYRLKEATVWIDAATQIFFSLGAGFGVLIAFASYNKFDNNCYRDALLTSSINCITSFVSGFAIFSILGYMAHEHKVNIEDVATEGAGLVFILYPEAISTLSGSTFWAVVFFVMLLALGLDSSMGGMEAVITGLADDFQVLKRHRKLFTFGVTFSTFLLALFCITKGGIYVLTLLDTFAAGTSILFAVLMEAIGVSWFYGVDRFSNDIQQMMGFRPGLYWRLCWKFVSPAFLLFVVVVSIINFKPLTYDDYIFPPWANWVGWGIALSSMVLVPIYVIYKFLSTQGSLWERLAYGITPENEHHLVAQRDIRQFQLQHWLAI
# T2 sequence (P20813 whole entry): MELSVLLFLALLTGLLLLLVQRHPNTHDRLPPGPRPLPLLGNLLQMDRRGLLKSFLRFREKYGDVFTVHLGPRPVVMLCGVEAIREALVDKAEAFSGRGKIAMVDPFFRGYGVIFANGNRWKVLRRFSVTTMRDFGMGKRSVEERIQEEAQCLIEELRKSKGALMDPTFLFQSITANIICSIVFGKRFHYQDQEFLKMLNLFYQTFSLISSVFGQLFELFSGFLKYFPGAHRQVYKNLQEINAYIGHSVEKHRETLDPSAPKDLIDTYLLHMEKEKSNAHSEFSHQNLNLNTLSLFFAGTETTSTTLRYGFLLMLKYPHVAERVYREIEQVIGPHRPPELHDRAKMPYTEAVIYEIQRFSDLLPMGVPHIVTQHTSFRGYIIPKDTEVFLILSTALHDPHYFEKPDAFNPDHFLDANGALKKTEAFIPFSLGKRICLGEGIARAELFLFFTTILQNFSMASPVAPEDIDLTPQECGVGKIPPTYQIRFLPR
structure (smiles),measurement,setting,value
"COc1ccc2ncc(F)c(CC[C@@]3(O)CO[C@@H]4[C@@H](NCc5cc6c(cn5)OCCO6)CO[C@@H]43)c2n1 [Compound 6, (3R, 3aS,6S,6aR)-6-(((2,3-dihydro-[1,4]dioxino[2,36-c]pyridin-7-yl)methyl)amnino)-3-(2-(3-fluoro-6-methoxy-1,5-naphthyridin-4-yl)ethyl)hexahydrofuro[3,2-b]furan-3-ol]",inhibition at 3 µM,[1]; [10],-4.4%
same,inhibition at 3 µM,[1]; [11],11%
same,inhibition at 30 µM,[1]; [10],-19.6%
same,inhibition at 30 µM,[1]; [11],25.1%
same,inhibition at 100 µM,[1]; [10],7.1%
same,inhibition at 100 µM,[1]; [11],43.6%
same,MIC,[2],1 µg/mL
same,CYP2B6 inhibition,[3],Less than 50%
same,MIC,[4],2 µg/mL
same,MIC,[5],≤ 0.12 µg/mL
same,MIC90,"[6]; Staphylococcus aureus, Cmpd. 6, MIC90",2 µg/mL
same,MIC90 better than that of ciprofloxacin,[6]; panel of fluoroquinolone-resistant MRSA isolates,16 fold
same,MIC,[7],≤ 0.12 µg/mL
same,inhibition at 100 µM,[8],51%
same,inhibition at 100 µM,[9],68%
